This passage reports IC50 results from patent US6630469B2, “5-HT7 receptor antagonists” (Bristol-Myers Squibb Company, priority 2000, dated 2003).

Molecules are shown by their SMILES. A value given as a limit tells only on which side of the number the result lay.

T1 sequence (P34969 whole entry): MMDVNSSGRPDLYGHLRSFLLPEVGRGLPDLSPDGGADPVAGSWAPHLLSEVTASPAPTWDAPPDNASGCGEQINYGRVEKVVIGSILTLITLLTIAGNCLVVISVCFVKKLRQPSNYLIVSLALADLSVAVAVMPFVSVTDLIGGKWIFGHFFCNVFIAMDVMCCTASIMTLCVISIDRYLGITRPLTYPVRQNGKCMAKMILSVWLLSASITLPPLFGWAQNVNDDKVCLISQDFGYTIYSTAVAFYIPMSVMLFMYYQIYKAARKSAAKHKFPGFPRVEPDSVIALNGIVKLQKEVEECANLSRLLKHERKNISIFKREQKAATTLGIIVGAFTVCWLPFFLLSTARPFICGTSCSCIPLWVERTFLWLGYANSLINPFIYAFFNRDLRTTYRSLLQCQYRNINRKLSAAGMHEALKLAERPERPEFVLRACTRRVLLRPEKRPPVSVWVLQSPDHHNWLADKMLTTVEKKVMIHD

The experiment concerns the target T1, human 5-HT7 receptor (Homo sapiens, UniProt P34969).
T1 construct: expressed in transfected cells; host or cells: CHO cells
In words: 5-HT7 Receptor Binding Assay. The note with it: membranes of CHO cells expressing human 5-HT7 receptor; 1 nM 3H-5-carboxamidotryptamine; 25° C., 60 minutes. The method, boiled down:
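Competition against 1 nM ^3H-5-carboxamidotryptamine over 0.1–1000 nM compound, 60 min, 25° C, 50 mM HEPES, 30 ug membrane protein from CHO cells expressing the human receptor. 10 uM serotonin defined non-specific binding. Bound label counted after filtration; IC50 from non-linear regression.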
The term IC50 denotes the concentration that gives 50% inhibition. `CC(Nc1ccnc(NCCc2ccc(O)cc2)n1)c1ccccc1` (stereo not shown) [N^2-[2-(4-Hydroxyphenyl)ethyl]-N^4-(1-phenylethyl)pyrimidine-2,4-diamine] returned an IC50 of at most 50 nM.

In turn, `COc1ccc(CCNc2nc(C)cc(N[C@@H](C)c3ccccc3)n2)cc1` [N^2-[2-(4-Methoxyphenyl)ethyl]-6-methyl-N^4-[(1S)-1-phenylethyl]pyrimidine-2,4-diamine] registered an IC50 of 101 to 200 nM.

For `COc1ccc(CCNc2nccc(NC(C)c3ccccc3)n2)cc1` (stereo not shown) [N^2-[2-(4-Methoxyphenyl)ethyl]-N^4-(1-phenylethyl)pyrimidine-2,4-diamine], the IC50 was in the range of 101 to 200 nM.

In the case of `Cc1ccc(CCNc2nc(C)cc(N[C@@H](C)c3ccccc3)n2)cc1` [N^2-[2-(4-Methylphenyl)ethyl]-6-methyl-N^4-[(1S)-1-phenylethyl]pyrimidine-2,4-diamine], the IC50 is at most 50 nM.

As for `Cc1ccc(CCNc2nccc(NC(C)c3ccccc3)n2)cc1` (stereo not shown) [N^2-[2-(4-Methylphenyl)ethyl]-N^4-(1-phenylethyl)pyrimidine-2,4-diamine], the IC50 is at most 50 nM.

`CC(C)(Nc1ccnc(NCCc2ccccc2)n1)c1ccccc1` [N^4-(1-Methyl-1-phenyl)ethyl)-N^2-(2-phenylethyl)pyrimidine-2,4-diamine] registered an IC50 of at most 50 nM.

Regarding `CC(CNc1nccc(NC(C)c2ccccc2)n1)c1ccccc1` (stereo not shown) [N^4-(1-Phenylethyl)-N^2-(2-phenylpropyl)pyrimidine-2,4-diamine], the IC50 is 51 to 100 nM.

As to `CC(Nc1ccnc(NCCCc2ccccc2)n1)c1ccccc1` (stereo not shown) [N^4-(1-Phenylethyl)-N^2-(3-phenylpropyl)pyrimidine-2,4-diamine], the IC50 was 51 to 100 nM.

The molecule `CC(Nc1ccnc(NCCc2cccc(C(F)(F)F)c2)n1)c1ccccc1` (stereo not shown) [N^4-(1-Phenylethyl)-N^2-{2-[3-(trifluoromethyl)phenyl]ethyl}pyrimidine-2,4-diamine] yielded an IC50 of 51 to 100 nM.

In turn, `Clc1ccc(CNc2ccnc(NCCc3ccccc3)n2)c(Cl)c1` [N^4-(2,4-Dichlorophenylmethyl)-N^2-(2-phenylethyl)pyrimidine-2,4-diamine] came in with an IC50 of 51 to 100 nM.

For the molecule `Clc1ccccc1CNc1ccnc(NCCc2ccccc2)n1` [N^4-(2-Chlorophenylmethyl)-N^2-(2-phenylethyl)pyrimidine-2,4-diamine], the IC50 was at most 50 nM.

On to `COc1ccccc1CNc1ccnc(NCCc2ccccc2)n1` [N^4-(2-Methoxyphenylmethyl)-N^2-(2-phenylethyl)pyrimidine-2,4-diamine], for which the IC50 is at most 50 nM.

In turn, `Clc1ccc(CNc2ccnc(NCCOc3ccccc3)n2)cc1Cl` [N^4-(3,4-Dichlorophenylmethyl)-N^2-(2-phenoxyethyl)pyrimidine-2,4-diamine] yielded an IC50 of 101 to 200 nM.

The molecule `Clc1ccc(CNc2ccnc(NCCc3ccccc3)n2)cc1Cl` [N^4-(3,4-Dichlorophenylmethyl)-N^2-(2-phenylethyl)pyrimidine-2,4-diamine] displayed a half-inhibitory concentration (IC50) of 101 to 200 nM.

`Fc1ccc(CNc2ccnc(NCCOc3ccccc3)n2)cc1F` [N^4-(3,4-Difluorophenylmethyl)-N^2-(2-phenoxyethyl)pyrimidine-2,4-diamine] showed an IC50 of at most 50 nM.

Molecule `Fc1ccc(CNc2ccnc(NCCc3ccccc3)n2)cc1F` [N^4-(3,4-Difluorophenylmethyl)-N^2-(2-phenylethyl)pyrimidine-2,4-diamine] came in with an IC50 of at most 50 nM.

Take `Fc1cc(F)cc(CNc2ccnc(NCCOc3ccccc3)n2)c1` [N^4-(3,5-Difluorophenylmethyl)-N^2-(2-phenoxyethyl)pyrimidine-2,4-diamine]: the IC50 lay within 101 to 200 nM.

In turn, `COc1cc(CNc2ccnc(NCCOc3ccccc3)n2)cc(OC)c1` [N^4-(3,5-Dimethoxyphenylmethyl)-N^2-(2-phenoxyethyl)pyrimidine-2,4-diamine] gave an IC50 of 101 to 200 nM.

For `Fc1ccc(CNc2ccnc(NCCOc3ccccc3)n2)cc1Cl` [N^4-(3-Chloro-4-fluorophenylmethyl)-N^2-(2-phenoxyethyl)pyrimidine-2,4-diamine], the IC50 was at most 50 nM.
